Results taken from ChEMBL document CHEMBL1126821, “A systematic evaluation of the inhibition of HIV-1 protease by its C- and N-terminal peptides” (Bioorg Med Chem Lett, 1993).
Residues, ends and D or L forms follow the SMILES beside them.

Biological target: Human immunodeficiency virus type 1 protease (Human immunodeficiency virus 1) (UniProt Q72874)
Experiment: Inhibitory activity against HIV-1 protease at 100 uM

With CC(=O)NCC(=O)N[C@@H](CO)C(=O)N[C@H](C(=O)N[C@@H](CC(C)C)C(=O)N[C@@H](CC(N)=O)C(=O)N[C@@H](Cc1ccccc1)C(=O)O)[C@@H](C)O (Ac-GSTLNF-OH) the inhibition was 4.6%.
In the case of CC[C@H](C)[C@H](NC(=O)[C@H](CCC(N)=O)NC(C)=O)C(=O)NCC(=O)N[C@@H](CO)C(=O)N[C@H](C(=O)N[C@@H](CC(C)C)C(=O)N[C@@H](CC(N)=O)C(=O)N[C@@H](Cc1ccccc1)C(=O)O)[C@@H](C)O (Ac-QIGSTLNF-OH), the inhibition is reported as 34.6%.
In the case of CC(=O)N[C@H](C(=O)N[C@@H](CC(C)C)C(=O)N[C@@H](CC(N)=O)C(=O)N[C@@H](Cc1ccccc1)C(=O)O)[C@@H](C)O (Ac-TLNF-OH), the inhibition is reported as 3.9%.
CC[C@H](C)[C@H](NC(=O)[C@H](CCC(N)=O)NC(=O)[C@@H]1CCCN1)C(=O)N[C@H](C(=O)N[C@@H](CC(C)C)C(=O)O)[C@@H](C)O (H-PQITL-OH) was tested, and the inhibition was 5.6%.
CC[C@H](C)[C@H](NC(=O)[C@H](CCC(N)=O)NC(=O)[C@@H]1CCCN1)C(=O)N[C@H](C(=O)N[C@@H](CC(C)C)C(=O)N[C@@H](Cc1c[nH]c2ccccc12)C(=O)N[C@@H](CCC(N)=O)C(=O)O)[C@@H](C)O (H-PQITLWQ-OH) gave an inhibition of 1.3%.
CC[C@H](C)[C@H](NC(=O)[C@H](CCC(N)=O)NC(=O)[C@@H]1CCCN1)C(=O)N[C@H](C(=O)N[C@@H](CC(C)C)C(=O)N[C@@H](Cc1c[nH]c2ccccc12)C(=O)O)[C@@H](C)O (H-PQITLW-OH) showed an inhibition of 39.9%.
In the case of CC(=O)N[C@@H](CO)C(=O)N[C@H](C(=O)N[C@@H](CC(C)C)C(=O)N[C@@H](CC(N)=O)C(=O)N[C@@H](Cc1ccccc1)C(=O)O)[C@@H](C)O (Ac-STLNF-OH), the inhibition is reported as 37.2%.
CC[C@H](C)[C@H](NC(C)=O)C(=O)NCC(=O)N[C@@H](CO)C(=O)N[C@H](C(=O)N[C@@H](CC(C)C)C(=O)N[C@@H](CC(N)=O)C(=O)N[C@@H](Cc1ccccc1)C(=O)O)[C@@H](C)O (Ac-IGSTLNF-OH) was tested, and the inhibition was 12.6%.
Work on CC[C@H](C)[C@H](NC(=O)[C@H](CCC(N)=O)NC(=O)[C@@H]1CCCN1C(C)=O)C(=O)N[C@H](C(=O)N[C@@H](CC(C)C)C(=O)O)[C@@H](C)O (Ac-PQITL-OH) yielded an inhibition of -1.4%.
CC[C@H](C)[C@H](NC(=O)[C@H](CCC(N)=O)NC(=O)[C@@H]1CCCN1C(C)=O)C(=O)N[C@H](C(=O)N[C@@H](CC(C)C)C(=O)N[C@@H](Cc1c[nH]c2ccccc12)C(=O)O)[C@@H](C)O (Ac-PQITLW-OH) showed an inhibition of 28.1%.
Work on CC[C@H](C)[C@H](NC(=O)[C@H](CCC(N)=O)NC(=O)[C@@H]1CCCN1C(C)=O)C(=O)N[C@H](C(=O)N[C@@H](CC(C)C)C(=O)N[C@@H](Cc1c[nH]c2ccccc12)C(=O)N[C@@H](CCC(N)=O)C(=O)O)[C@@H](C)O (Ac-PQITLWQ-OH) yielded an inhibition of 26%.
